Experimental data published in patent US10556902B2 (Asceneuron SA, priority 2016, dated 2020).

What follows are molecules tested against His-Tagged hOGA (human O-GlcNAcase) (Homo sapiens (Human), UniProt O60502) (assay: Human O-GlcNAcase enzyme inhibition assay). Conditions: OGA enzyme inhibition assay; FL-GlcNAc substrate, pH 6.5; activity classes defined in μM; read-out: OGA IC50.
Format: biochemical
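Also: reactions contained 20 nM His-tagged hOGA enzyme with 10 µM FL-GlcNAc substrate.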
Description: Then, 20 nM of His-Tagged hOGA and 10 μM of FL-GlcNAc (Fluorescein mono-beta-D-(2-deoxy-2-N-acetyl) glucopyranoside; Marker Gene Technologies Inc, M1485) were added to the 384-well plate for a final volume of 20 μl.

Chain of His-Tagged hOGA (human O-GlcNAcase) (O60502 whole entry): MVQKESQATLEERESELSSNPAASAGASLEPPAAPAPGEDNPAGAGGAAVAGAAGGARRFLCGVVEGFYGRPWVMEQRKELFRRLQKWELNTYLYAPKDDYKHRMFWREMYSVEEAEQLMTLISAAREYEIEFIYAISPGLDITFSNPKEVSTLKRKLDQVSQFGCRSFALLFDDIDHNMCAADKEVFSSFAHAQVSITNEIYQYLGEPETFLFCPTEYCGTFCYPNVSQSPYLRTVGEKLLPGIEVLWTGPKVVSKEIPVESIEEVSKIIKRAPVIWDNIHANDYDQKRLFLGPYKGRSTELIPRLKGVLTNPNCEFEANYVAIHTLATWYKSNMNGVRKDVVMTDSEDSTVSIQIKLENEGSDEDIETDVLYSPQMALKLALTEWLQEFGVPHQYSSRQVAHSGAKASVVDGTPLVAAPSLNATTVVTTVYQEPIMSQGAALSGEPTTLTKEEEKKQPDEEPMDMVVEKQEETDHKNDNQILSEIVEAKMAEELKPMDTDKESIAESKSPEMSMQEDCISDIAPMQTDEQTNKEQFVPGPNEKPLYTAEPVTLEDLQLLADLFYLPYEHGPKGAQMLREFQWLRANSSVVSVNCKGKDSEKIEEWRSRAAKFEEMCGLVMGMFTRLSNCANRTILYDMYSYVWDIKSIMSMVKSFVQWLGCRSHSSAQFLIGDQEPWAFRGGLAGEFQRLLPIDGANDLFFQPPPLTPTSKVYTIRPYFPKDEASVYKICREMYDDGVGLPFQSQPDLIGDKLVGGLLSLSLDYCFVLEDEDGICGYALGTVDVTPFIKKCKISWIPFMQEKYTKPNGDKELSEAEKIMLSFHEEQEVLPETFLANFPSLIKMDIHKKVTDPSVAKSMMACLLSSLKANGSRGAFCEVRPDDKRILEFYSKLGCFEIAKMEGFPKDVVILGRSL

Compound | IC50 [µM]
CC(O)c1ccc(N2CCN(C(C)c3ccc4nccnc4c3)CC2)nn1 (racemic) [Example 36, 1-(6-(4-(1-(quinoxalin-6-yl)ethyl)piperazin-1-yl)pyridazin-3-yl)ethan-1-ol] | 0.2 to 1
CC(c1ccc2c(c1)OCC2)N1CCC(n2cc(CO)cn2)CC1 (racemic) [Example 28, (1-(1-(1-(2,3-dihydrobenzofuran-6-yl)ethyl)piperidin-4-yl)-1H-pyrazol-4-yl) methanol] | 0.2 to 1
CC(c1ccc2nccnc2c1)N1CCN(c2ccc(C3(O)COC3)cn2)CC1 (racemic) [Example 59, 3-(6-(4-(1-(quinoxalin-6-yl)ethyl)piperazin-1-yl)pyridin-3-yl)oxetan-3-ol] | 0.05 to 0.2
CC(c1ccc2nccnc2c1)N1CCN(c2nc3c(s2)CNCC3)CC1 (racemic) [Example 19, 2-(4-(1-(quinoxalin-6-yl)ethyl)piperazin-1-yl)-4,5,6,7-tetrahydrothiazolo[5,4-c]pyridine] | 0.05 to 0.2
CC(c1ccn2ccnc2c1)N1CCN(c2ncc(C(F)(F)F)cn2)CC1 (racemic) [Example 91, 7-(1-(4-(5-(trifluoromethyl)pyrimidin-2-yl)piperazin-1-yl)ethyl)imidazo[1,2-a]pyridine] | 1 to 10
Cc1nnc(N2CCN(C(C)c3ccc4nccnc4c3)CC2)s1 (racemic) [Example 116, 2-methyl-5-(4-(1-(quinoxalin-6-yl)ethyl)piperazin-1-yl)-1,3,4-thiadiazolequinoxaline] | 0.2 to 1
CC(c1ccc2nccnc2c1)N1CCN(c2ncc(C(C)(C)O)cn2)CC1 (racemic) [Example 85, 2-(2-(4-(1-(quinoxalin-6-yl)ethyl)piperazin-1-yl)pyrimidin-5-yl) propan-2-ol] | 0.05 to 0.2
CC(c1cnc2cccnc2c1)N1CCN(c2ncc(C(F)(F)F)cn2)CC1 (racemic) [Example 93, 3-(1-(4-(5-(trifluoromethyl)pyrimidin-2-yl)piperazin-1-yl)ethyl)-1,5-naphthyridine] | 0.2 to 1
CC(c1ccc2c(c1)OCC2)N1CCC(n2cc(S(C)(=O)=O)cn2)CC1 (racemic) [Example 34, 1-(1-(2,3-dihydrobenzofuran-6-yl)ethyl)-4-(4-(methylsulfonyl)-1H-pyrazol-1-yl)piperidine] | 0.2 to 1
CC(=O)NC(C)(C)c1cnc(N2CCN(C(C)c3ccc4nccnc4c3)CC2)nc1 (racemic) [Example 107, N-(2-(2-(4-(1-(quinoxalin-6-yl)ethyl)piperazin-1-yl)pyrimidin-5-yl)propan-2-yl)acetamide] | 0.2 to 1
C[C@@H](c1cnc2cccnc2c1)N1CCN(c2ncc(C(F)(F)F)cn2)CC1 [Example 221] | 0.2 to 1

The remaining lines, values ahead:

IC50 [µM] | Compound
1 to 10 | CC(=O)Nc1cnn(C2CCN(C(C)c3ccc4nccnc4c3)CC2)c1 (racemic) [Example 27, N-(1-(1-(1-(quinoxalin-6-yl)ethyl)piperidin-4-yl)-1H-pyrazol-4-yl)acetamide]
0.05 to 0.2 | CC(c1ccc2nccnc2c1)N1CCN(c2ncc(C(O)C(F)(F)F)cn2)CC1 (racemic) [Example 87, 2,2,2-trifluoro-1-(2-(4-(1-(quinoxalin-6-yl)ethyl)piperazin-1-yl)pyrimidin-5-yl)ethan-1-ol]
< 0.05 | CNC(=O)c1cnc(N2CCN(C(C)c3ccc4c(c3)OCC4)CC2)nc1 (racemic) [Example 99, 2-(4-(1-(2,3-dihydrobenzofuran-6-yl)ethyl)piperazin-1-yl)-N-methylpyrimidine-5-carboxamide]
< 0.05 | CNC(=O)c1ccnc(N2CCN(C(C)c3ccc4c(c3)OCC4)CC2)n1 (racemic) [Example 103, 2-(4-(1-(2,3-dihydrobenzofuran-6-yl)ethyl)piperazin-1-yl)-N-methylpyrimidine-4-carboxamide]
< 0.05 | CC(c1ccc2nccnc2c1)N1CCN(c2ncc3c(n2)CCN(C)C3)CC1 (racemic) [Example 9, 6-methyl-2-(4-(1-(quinoxalin-6-yl)ethyl)piperazin-1-yl)-5,6,7,8-tetrahydropyrido[4,3-d]pyrimidine]
0.05 to 0.2 | CC(c1ccc2cccnc2n1)N1CCN(c2ncc(C(F)(F)F)cn2)CC1 (racemic) [Example 92, 2-(1-(4-(5-(trifluoromethyl)pyrimidin-2-yl)piperazin-1-yl)ethyl)-1,8-naphthyridine]
< 0.05 | Cc1nnc(C2CCN(C(C)c3ccc4c(c3)OCC4)CC2)o1 (racemic) [Example 23, 2-(1-(1-(2,3-dihydrobenzofuran-6-yl)ethyl)piperidin-4-yl)-5-methyl-1,3,4-oxadiazole]
< 0.05 | CC(C)C(O)c1ccc(N2CCN(C(C)c3ccc4c(c3)OCC4)CC2)nc1 (racemic) [Example 49, 1-(6-(4-(1-(2,3-dihydrobenzofuran-6-yl)ethyl)piperazin-1-yl)pyridin-3-yl)-2-methylpropan-1-ol]
< 0.05 | CC(c1ccc2c(c1)OCC2)N1CCN(c2ncc(C(C)(C)O)cn2)CC1 (racemic) [Example 74, 2-(2-(4-(1-(2,3-dihydrobenzofuran-6-yl)ethyl)piperazin-1-yl)pyrimidin-5-yl) propan-2-ol]
< 0.05 | CC(c1ccc2cccnc2n1)N1CCN(c2ncc(C(O)C(F)(F)F)cn2)CC1 (racemic) [Example 83, 1-(2-(4-(1-(1,8-naphthyridin-2-yl)ethyl)piperazin-1-yl)pyrimidin-5-yl)-2,2,2-trifluoroethan-1-ol]
< 0.05 | COC(=O)c1cnc(N2CCN(C(C)c3ccc4scnc4c3)CC2)nc1 (racemic) [Example 95, Methyl 2-(4-(1-(benzo[d]thiazol-5-yl)ethyl)piperazin-1-yl)pyrimidine-5-carboxylate]
< 0.05 | CC(c1ccc2c(c1)OCC2)N1CCN(c2nc3c(s2)CN(C)CC3)CC1 (racemic) [Example 16, 2-(4-(1-(2,3-dihydrobenzofuran-6-yl)ethyl)piperazin-1-yl)-5-methyl-4,5,6,7-tetrahydrothiazolo[5,4-c]pyridine]
< 0.05 | CC(c1ccc2c(c1)OCC2)N1CCN(c2nnc(CN)s2)CC1 (racemic) [Example 124, (5-(4-(1-(2,3-dihydrobenzofuran-6-yl)ethyl)piperazin-1-yl)-1,3,4-thiadiazol-2-yl)methanamine]
< 0.05 | CC(c1ccc2c(c1)OCC2)N1CCN(c2ccc(C(O)C(F)(F)F)cn2)CC1 (racemic) [Example 50, 1-(6-(4-(1-(2,3-dihydrobenzofuran-6-yl)ethyl)piperazin-1-yl)pyridin-3-yl)-2,2,2-trifluoroethan-1-ol]
< 0.05 | CC(c1ccc2c(c1)OCC2)N1CCN(c2nccc(C(=O)N(C)C)n2)CC1 (racemic) [Example 101, 2-(4-(1-(2,3-dihydrobenzofuran-6-yl)ethyl)piperazin-1-yl)-N,N-dimethylpyrimidine-4-carboxamide]
< 0.05 | CC(=O)N1CCc2nc(N3CCN(C(C)c4ccc5c(c4)OCC5)CC3)sc2C1 (racemic) [Example 10, 1-(2-(4-(1-(2,3-dihydrobenzofuran-6-yl)ethyl)piperazin-1-yl)-6,7-dihydrothiazolo[5,4-c]pyridin-5(4H)-yl)ethan-1-one]
0.2 to 1 | COC(=O)c1cccc(N2CCN(C(C)c3ccc4nccnc4c3)CC2)n1 (racemic) [Example 70, Methyl 6-(4-(1-(quinoxalin-6-yl)ethyl)piperazin-1-yl)picolinate]
